Consider 15 molecules from US9714234B2, “Carbazole carboxamide compounds” (Bristol-Myers Squibb Company, priority 2013, dated 2017).

By IC50 is commonly meant the concentration needed to halve the response being measured.

One experiment deals with Jak2 tyrosine kinase (Homo sapiens (Human), UniProt O60674). The experiment is described as follows: Jak2 Tyrosine Kinase Assay. The note with it: for IC50: Jak2 1 nM, ATP 30 μM; for Ratio of Jak2/Btk IC50 values: selectivity for Btk over Jak2, larger value = more selective for Btk. The format is biochemical.
Experiment [1] concerns CD69 expression on B cells in human whole blood. Briefly: Whole Blood Assays of BCR-Stimulated CD69 Expression on B Cells. The format is cell-based. The note with it: anti-human IgM + IL-4 stimulation, 18 h at 37° C.
Another experiment concerns the target human recombinant Btk (Homo sapiens (Human), UniProt Q06187). Briefly: Human Recombinant Btk Enzyme Assay. Particulars: human recombinant Btk 1 nM, ATP 20 μM. It is filed as biochemical.

Jak2 tyrosine kinase, sequence (O60674 whole entry): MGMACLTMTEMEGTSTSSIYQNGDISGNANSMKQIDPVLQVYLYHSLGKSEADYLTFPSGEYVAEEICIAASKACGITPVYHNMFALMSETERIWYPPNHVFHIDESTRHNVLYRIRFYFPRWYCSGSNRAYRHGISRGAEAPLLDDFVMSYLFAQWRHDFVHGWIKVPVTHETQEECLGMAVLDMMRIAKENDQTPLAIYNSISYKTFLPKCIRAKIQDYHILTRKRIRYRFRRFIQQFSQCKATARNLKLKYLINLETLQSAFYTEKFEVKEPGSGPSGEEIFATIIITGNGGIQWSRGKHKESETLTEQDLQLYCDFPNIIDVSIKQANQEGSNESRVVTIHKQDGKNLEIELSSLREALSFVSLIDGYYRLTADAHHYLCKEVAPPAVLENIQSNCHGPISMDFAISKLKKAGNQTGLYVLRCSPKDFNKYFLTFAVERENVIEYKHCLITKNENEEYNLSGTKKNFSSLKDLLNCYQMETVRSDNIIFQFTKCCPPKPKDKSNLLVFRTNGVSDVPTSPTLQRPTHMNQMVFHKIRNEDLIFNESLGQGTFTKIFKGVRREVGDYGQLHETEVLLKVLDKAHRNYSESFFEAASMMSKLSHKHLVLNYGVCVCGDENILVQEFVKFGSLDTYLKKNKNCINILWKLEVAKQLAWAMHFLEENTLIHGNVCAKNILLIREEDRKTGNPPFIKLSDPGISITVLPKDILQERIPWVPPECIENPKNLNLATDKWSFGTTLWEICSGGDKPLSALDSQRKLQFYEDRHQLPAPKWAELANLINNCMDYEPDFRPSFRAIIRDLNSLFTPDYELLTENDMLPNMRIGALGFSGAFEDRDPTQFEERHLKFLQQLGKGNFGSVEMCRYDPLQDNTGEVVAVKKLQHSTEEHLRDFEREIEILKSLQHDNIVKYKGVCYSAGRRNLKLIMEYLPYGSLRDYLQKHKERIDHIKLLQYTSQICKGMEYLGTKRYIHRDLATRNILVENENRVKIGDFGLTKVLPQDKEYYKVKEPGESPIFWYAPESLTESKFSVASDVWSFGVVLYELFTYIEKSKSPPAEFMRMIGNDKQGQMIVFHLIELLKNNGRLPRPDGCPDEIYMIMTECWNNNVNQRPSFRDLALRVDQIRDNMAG
human recombinant Btk, sequence (Q06187 whole entry): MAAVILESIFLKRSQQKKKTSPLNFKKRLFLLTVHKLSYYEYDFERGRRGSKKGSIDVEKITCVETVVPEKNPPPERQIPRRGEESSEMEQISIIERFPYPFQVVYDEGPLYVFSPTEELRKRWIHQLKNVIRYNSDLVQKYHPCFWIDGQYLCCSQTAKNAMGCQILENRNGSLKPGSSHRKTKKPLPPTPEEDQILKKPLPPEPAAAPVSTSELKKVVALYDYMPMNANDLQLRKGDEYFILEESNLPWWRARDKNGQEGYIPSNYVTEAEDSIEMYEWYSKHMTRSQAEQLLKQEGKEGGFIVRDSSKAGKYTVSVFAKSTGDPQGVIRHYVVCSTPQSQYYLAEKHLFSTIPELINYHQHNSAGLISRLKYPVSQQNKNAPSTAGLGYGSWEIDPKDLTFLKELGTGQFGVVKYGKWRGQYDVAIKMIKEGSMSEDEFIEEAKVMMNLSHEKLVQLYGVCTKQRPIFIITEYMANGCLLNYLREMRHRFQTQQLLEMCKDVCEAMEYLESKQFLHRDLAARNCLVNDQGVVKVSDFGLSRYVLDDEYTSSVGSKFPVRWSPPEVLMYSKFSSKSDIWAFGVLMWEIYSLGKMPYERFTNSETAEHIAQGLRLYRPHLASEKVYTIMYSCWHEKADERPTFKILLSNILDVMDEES

With `[2H]C([2H])([2H])n1c(=O)n(-c2cccc(-c3ccc(C(N)=O)c4[nH]c5cc(C(C)(C)O)cc(C)c5c34)c2C)c(=O)c2cccc(F)c21` (atropisomer, axis not shown) [Example 27, 4-(3-(S)-(8-Fluoro-1-methyl(d3)-2,4-dioxo-1,2-dihydroquinazolin-3(4H)-yl)-2-methylphenyl)-7-(2-hydroxypropan-2-yl)-5-methyl-9H-carbazole-1-carboxamide], the IC50 against Jak2 tyrosine kinase was over 2000 nM; in experiment [1] (B-cell), 98 nM; on human recombinant Btk, 1.2 nM. Also, the “Ratio of Jak2/Btk IC50 values” at Jak2 tyrosine kinase is on record as over 1700.

For the molecule `Cc1c(-c2ccc(C(N)=O)c3[nH]c4cc(C(C)(C)O)ccc4c23)cccc1-n1c(=O)cc2c(F)cccn2c1=O` [Example 21, 4-(3-(5-Fluoro-1,3-dioxo-1H-pyrido[1,2-c]pyrimidin-2(3H)-yl)-2-methylphenyl)-7-(2-hydroxypropan-2-yl)-9H-carbazole-1-carboxamide], the IC50 against Jak2 tyrosine kinase was 960 nM; in experiment [1] (Homo sapiens, B-cell, 18 h), 75 nM; on human recombinant Btk, 0.93 nM. Moreover, the “Ratio of Jak2/Btk IC50 values” at Jak2 tyrosine kinase is recorded as 1000.

Regarding `Cc1nc(C(N)=O)c2[nH]c3cc(C(C)(C)O)ccc3c2c1-c1cccc(-n2cnc3ccccc3c2=O)c1C` [compound 35, 7-(2-Hydroxypropan-2-yl)-3-methyl-4-(2-methyl-3-(4-oxoquinazolin-3(4H)-yl)phenyl)-9H-pyrido[3,4-b]indole-1-carboxamide, reference compound], the “Ratio of Jak2/Btk IC50 values” on Jak2 tyrosine kinase is recorded as 29.

Turning to `Cc1c(-c2ccc(C(N)=O)c3[nH]c4cc(C(C)(C)O)ccc4c23)cccc1-n1c(=O)c(F)c2ccccn2c1=O` [Example 19, 4-(3-(4-Fluoro-1,3-dioxo-1H-pyrido[1,2-c]pyrimidin-2(3H)-yl)-2-methylphenyl)-7-(2-hydroxypropan-2-yl)-9H-carbazole-1-carboxamide], the IC50 on Jak2 tyrosine kinase turned out to be 1900 nM; in experiment [1] (B-cell), 140 nM; on human recombinant Btk it was 1.6 nM. Further, the “Ratio of Jak2/Btk IC50 values” on Jak2 tyrosine kinase is 1200.

As to `Cc1c(-c2ccc(C(N)=O)c3[nH]c4cc(C(C)(C)O)ccc4c23)cccc1-n1c(=O)cc2sccn2c1=O` [Example 20, 4-(3-(5,7-Dioxo-5H-thiazolo[3,2-c]pyrimidin-6(7H)-yl)-2-methylphenyl)-7-(2-hydroxypropan-2-yl)-9H-carbazole-1-carboxamide], the IC50 at Jak2 tyrosine kinase was found to be 570 nM; in experiment [1] (B-cell), 130 nM; at human recombinant Btk it was 1.6 nM. Moreover, on Jak2 tyrosine kinase, the “Ratio of Jak2/Btk IC50 values” is listed as 360.

Regarding `Cc1c(-c2ccc(C(N)=O)c3[nH]c4cc(C(C)(C)O)ccc4c23)cccc1-n1c(=O)c2cc(F)ccc2n(C)c1=O` [Example 8, 4-(3-(6-Fluoro-1-methyl-2,4-dioxo-1,2-dihydroquinazolin-3(4H)-yl)-2-methylphenyl)-7-(2-hydroxypropan-2-yl)-9H-carbazole-1-carboxamide], the half-inhibitory concentration (IC50) against Jak2 tyrosine kinase worked out at 2200 nM; in experiment [1] (B-cell), 160 nM; at human recombinant Btk it was 5.8 nM. Moreover, the “Ratio of Jak2/Btk IC50 values” on Jak2 tyrosine kinase came out at 380.

As to `Cc1c(-c2ccc(C(N)=O)c3[nH]c4cc(C(C)(C)O)ccc4c23)cccc1-n1c(=O)cc2c(F)cccn2c1=O` [Example 22, 4-(3-(5-Fluoro-1,3-dioxo-1H-pyrido[1,2-c]pyrimidin-2(3H)-yl)-2-methylphenyl)-7-(2-hydroxypropan-2-yl)-9H-carbazole-1-carboxamide], the IC50 at Jak2 tyrosine kinase amounted to 880 nM; in experiment [1], 91 nM; on human recombinant Btk, 1.7 nM. Further, the “Ratio of Jak2/Btk IC50 values” at Jak2 tyrosine kinase came out at 520.

Consider `Cc1c(-c2ccc(C(N)=O)c3[nH]c4cc(N(C)C)ccc4c23)cccc1-n1c(=O)cc2c(F)cccn2c1=O` [Example 29, 7-(dimethylamino)-4-(3-(5-fluoro-1,3-dioxo-1H-pyrido[1,2-c]pyrimidin-2(3H)-yl)-2-methylphenyl)-9H-carbazole-1-carboxamide], for which the IC50 in experiment [1] (B-cell) was 56 nM.

For the molecule `COc1ccn2c(=O)n(-c3cccc(-c4ccc(C(N)=O)c5[nH]c6cc(C(C)(C)O)ccc6c45)c3C)c(=O)cc2c1` [Example 11, 7-(2-Hydroxypropan-2-yl)-4-(3-(6-methoxy-1,3-dioxo-1H-pyrido[1,2-c]pyrimidin-2(3H)-yl)-2-methylphenyl)-9H-carbazole-1-carboxamide], the IC50 was 1000 nM on Jak2 tyrosine kinase, 140 nM in experiment [1] (B-cell) and 0.63 nM at human recombinant Btk. Further, the “Ratio of Jak2/Btk IC50 values” on Jak2 tyrosine kinase is 1600.

Turning to `COc1ccc2cc(=O)n(-c3cccc(-c4ccc(C(N)=O)c5[nH]c6cc(C(C)(C)O)ccc6c45)c3C)c(=O)n2c1` [Example 10, 7-(2-Hydroxypropan-2-yl)-4-(3-(7-methoxy-1,3-dioxo-1H-pyrido[1,2-c]pyrimidin-2(3H)-yl)-2-methylphenyl)-9H-carbazole-1-carboxamide], the IC50 against Jak2 tyrosine kinase was 1100 nM; in experiment [1] (B-cell), 120 nM; at human recombinant Btk, 1.4 nM. Moreover, at Jak2 tyrosine kinase, the “Ratio of Jak2/Btk IC50 values” was determined as 790.

In the case of `COCc1ccc2c(c1)[nH]c1c(C(N)=O)ccc(-c3cccc(-n4c(=O)cc5c(Cl)cccn5c4=O)c3C)c12` [Example 17, 4-(3-(5-Chloro-1,3-dioxo-1H-pyrido[1,2-c]pyrimidin-2(3H)-yl)-2-methylphenyl)-7-(methoxymethyl)-9H-carbazole-1-carboxamide], the values for the IC50 (on Jak2 tyrosine kinase; in experiment [1] (B-cell); at human recombinant Btk) were 1900 nM, 110 nM and 1.7 nM, respectively. Besides, the “Ratio of Jak2/Btk IC50 values” at Jak2 tyrosine kinase stood at 1100.

On to `Cc1c(-c2ccc(C(N)=O)c3[nH]c4cc(C(C)(C)O)ccc4c23)cccc1-n1c(=O)c2cccc(F)c2n(C)c1=O` (atropisomer, axis not shown) [Example 3, 4-(3-(S)-(8-Fluoro-1-methyl-2,4-dioxo-1,2-dihydroquinazolin-3(4H)-yl)-2-methylphenyl)-7-(2-hydroxypropan-2-yl)-9H-carbazole-1-carboxamide], for which the IC50 was determined as 1200 nM against Jak2 tyrosine kinase and 190 nM in experiment [1].

As to `Cc1c(-c2ccc(C(N)=O)c3[nH]c4cc(C(C)(C)O)ccc4c23)cccc1-n1c(=O)cc2c(Cl)cccn2c1=O` [Example 14, 4-(3-(R)-(5-Chloro-1,3-dioxo-1H-pyrido[1,2-c]pyrimidin-2(3H)-yl)-2-methylphenyl)-7-(2-hydroxypropan-2-yl)-9H-carbazole-1-carboxamide], in experiment [1], the IC50 is 78 nM.

For the molecule `[2H]C([2H])([2H])n1c(=O)n(-c2cccc(-c3ccc(C(N)=O)c4[nH]c5cc(C(C)(C)O)ccc5c34)c2C)c(=O)c2cccc(F)c21` (atropisomer, axis not shown) [Example 4, 4-(3-(S)-(8-Fluoro-1-methyl(d3)-2,4-dioxo-1,2-dihydroquinazolin-3(4H)-yl)-2-methylphenyl)-7-(2-hydroxypropan-2-yl)-9H-carbazole-1-carboxamide], the values for the IC50 (on Jak2 tyrosine kinase; in experiment [1]) were 2000 nM and 190 nM, respectively.

Turning to `Cc1c(-c2ccc(C(N)=O)c3[nH]c4cc(CN5CCCC5)ccc4c23)cccc1-n1c(=O)cc2c(Cl)cccn2c1=O` [Example 31, 4-(3-(5-chloro-1,3-dioxo-1H-pyrido[1,2-c]pyrimidin-2(3H)-yl)-2-methylphenyl)-7-(pyrrolidin-1-ylmethyl)-9H-carbazole-1-carboxamide], in experiment [1] (B-cell), the IC50 was 60 nM.
